Where only a bound is given, the exact number is not on record here.

The values that follow come from patent US11059801B2, “Methods to induce targeted protein degradation through bifunctional molecules” (Dana-Farber Cancer Institute, Inc., priority 2014, dated 2021).

The target in assay [1] is fusion of mutant FKBP12 to nanoluciferase (Homo sapiens (Human), UniProt P62942+Q96SW2, F36V). As to the kind of experiment: FKBP Dual Luciferase Assay (mutant FKBP12, 36V).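 For all read-outs here: cells exposed to rising degrader concentrations, FKBP12 fusion level read as NLuc/FLuc signal ratio, lower ratio means more degradation.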 It is filed as cell-based. Conditions: 4 hours; for DC50: read-out: DC50 (nM) FKBP 36V.
Experimental: (§1) The cells were treated with increasing concentrations of various dFKBPs for 4 hours. The amount of NLuc and FLuc was measured, and the abundance of the FKBP12-HA-NLuc was quantified by calculating the signal ratio of NLuc/FLuc.
The next assay addresses GST-FKBP12 (36V) (Homo sapiens (Human), UniProt P62942, F36V). As to the kind of experiment: FKBP12 Ligand-Displacement AlphaScreen Assay (36V). It is filed as binding. Conditions: read-out: IC50 (nM) FKBP 36V.
The next assay concerns the target GST-FKBP12 (WT) (Homo sapiens (Human), UniProt P62942). As to the kind of experiment: FKBP12 Ligand-Displacement AlphaScreen Assay (WT). It is filed as binding. To be noted: read-out: IC50 (nM) FKBP.
Assay [2] has as its target fusion of FKBP12 to nanoluciferase (Homo sapiens (Human), UniProt P62942+Q96SW2). As to the kind of experiment: FKBP Dual Luciferase Assay (FKBP12). It counts as cell-based. Conditions: 4 hours.
Experimental: as §1
Another assay concerns NGP. As to the kind of experiment: Cell viability, ATPlite, 72 hours. It is filed as cell-based. To be noted: NGP cells, Table 4-1.
The target of assay [3] is T1, BRD4 (Homo sapiens (Human), UniProt O60885). As to the kind of experiment: BRD4 Cell Western (BRD4 levels in 293T cells, LiCOR). It is filed as cell-based.
Experimental: On the following day, dBET compounds were added at various concentrations. After being treated with the dBET compounds for 4 hours, cells were fixed with formaledhyde, permeabilized using 0.1% triton, blocked with LiCor blocking buffer, and incubated with the primary antibody (BRD4, 1:1000) overnight. On the following day, cells were washed (5×TBST) and stained using Odysee Cell Stain (1:500). A secondary antibody recoginizing the rabbit BRD4 antibody was added simultaneously (1:800). Images were quantified using LiCOR imager.
Assay [4] addresses BRD4 adjoined to nanoluciferase (Nluc) (Homo sapiens (Human), UniProt O60885+Q96SW2). As to the kind of experiment: BRD4 Dual Luciferase Assay. It counts as cell-based. To be noted: for Conc@Emax: concentration at Emax; for DC50: Dual Luciferase; for DC50 / pDC50 (dual luc): 4 hours.
Experimental: Transduced cells were selected with puromycin and expanded. […] Cells were incubated with compound for 4 hours at 37° C., 5% CO2 and then allowed to cool to room temperature. To each plate was added 25 μL of Fluc buffer (200 mM Tris, 15 mM MgSO4, 100 uM EDTA, 1 mM DTT, 1 mM ATP, 200 uM Coenzyme A, 400 uM D-Luciferin, 0.1% Trition X-100).
Another assay has as its target CRBN-DDB1/BRD4 (Homo sapiens (Human), UniProt O60885+Q96SW2). As to the kind of experiment: CRBN-DDB1/BRD4 Dimerization Assay.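 For all read-outs here: AlphaScreen proximity signal between GST-tagged BRD4 and CRBN-DDB1 with glutathione donor and nickel chelate acceptor beads, read after 1 hr compound incubation at room temperature, values from Gaussian curve fit.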 It is filed as binding. Conditions: for Dimer Amplitude / Dimer Mean: Gaussian fit of dimerization signal; for Dimer SD: Gaussian fit parameter of dimerization signal.
Assay [5] has as its target T1, BRD4. As to the kind of experiment: BRD4 AlphaScreen. It counts as binding. To be noted: Table 4-1.
Experimental: Cells were grown at 37° C. to an OD of 0.8, induced with 500 μM isopropyl-1-thio-D-galactopyranoside, incubated overnight at 17° C., collected by centrifugation, and stored at −80° C. Cell pellets were sonicated in buffer A (50 mM hepes 7.5+300 mM NaCl+10% glycerol+10 mM Imidazole+3 mM BME) and the resulting lysate was centrifuged at 35,000×g for 40 min. […] The sample was then passed through a desalting column ( 26/10 column) equilibrate with buffer A (without imidazole), and the eluted protein was subjected to a second Ni-NTA step to remove His-tag and TEV. The eluant was concentrated and passed through a Superdex-200 10/300 column in 20 mM hepes7.5+150 mM NaCl+1 mM DTT. Fractions were pooled, concentrated to 14 mg/ml, and frozen at −80° C.
The data were analyzed using PRISM Graphpad v6 to obtain IC50 values.
Assay [6] addresses T1, BRD4. As to the kind of experiment: BRD4 immunoblot in MV4-11 cells. It is filed as cell-based. To be noted: MV4-11, 24 h.

Chain of GST-FKBP12 (36V) (P62942 whole entry F37V): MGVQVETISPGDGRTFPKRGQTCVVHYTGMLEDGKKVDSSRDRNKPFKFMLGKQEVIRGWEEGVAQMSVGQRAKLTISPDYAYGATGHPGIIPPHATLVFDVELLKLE
Chain of GST-FKBP12 (WT) (P62942 whole entry, the tested form may be a part): as the sequence (P62942 whole entry F37V) above, with V37F counted along it
Experimental for GST-FKBP12 (36V): (§2) Following a 30 min-incubation, 20 uL detection solution containing Streptavidin Donor Beads and Glutathione Acceptor Beads diluted to 20 ng/uL in assay buffer was added to each well. […] Percent activity values were calculated by setting the average background (no protein wells) to 0% the average DMSO wells to 100% activity. Standard deviations were determined from at least four replicate measurements for compound concentration.
Experimental for GST-FKBP12 (WT): as §2

With `CC[C@H](C(=O)N1CCCC[C@H]1C(=O)O[C@H](CCc1ccc(OC)c(OC)c1)c1cccc(OCC(=O)NCCCCNC(=O)COc2cccc3c2C(=O)N(C2CCC(=O)NC2=O)C3=O)c1)c1cc(OC)c(OC)c(OC)c1` (stereo partly drawn) [c1FKBP*-6], the DC50 in assay [1] (FKBP 36V) was 1.3 nM. For the same compound, the values for the IC50 on GST-FKBP12 (36V) and at GST-FKBP12 (WT) were 311 nM and more than 50000 nM, respectively.
As to `CC[C@H](C(=O)N1CCCC[C@H]1C(=O)O[C@H](CCc1ccc(OC)c(OC)c1)c1cccc(OCC(=O)NCCCOCCOCCOCCCNC(=O)COc2cccc3c2C(=O)N(C2CCC(=O)NC2=O)C3=O)c1)c1cc(OC)c(OC)c(OC)c1` (stereo partly drawn) [c1FKBP*-7], the DC50 in assay [1] (FKBP 36V) was found to be 0.5 nM. Moreover, the IC50 was 373 nM on GST-FKBP12 (36V) and more than 50000 nM on GST-FKBP12 (WT).
For `CC[C@H](C(=O)N1CCCC[C@H]1C(=O)O[C@H](CCc1ccc(OC)c(OC)c1)c1cccc(OCC(=O)NCCCCCCNC(=O)COc2cccc3c2C(=O)N(C2CCC(=O)NC2=O)C3=O)c1)c1cc(OC)c(OC)c(OC)c1` (stereo partly drawn) [c1FKBP*-8], in assay [1] (FKBP 36V), the DC50 was 0.8 nM. The Dmax in assay [1] (FKBP 36V, read-out: Max Degradation (dual luciferase, %) FKBP 36V) was 75%; in [2] (read-out: Max Degradation (dual luciferase, %) FKBP), less than 5%. Moreover, the IC50 on GST-FKBP12 (36V) is 365 nM; at GST-FKBP12 (WT), more than 50000 nM.
As to `CCC(C)(C)C(=O)C(=O)N1CCC[C@H]1C(=O)O[C@H](CCc1ccc(OC)c(OC)c1)c1cccc(OCC(=O)NCCCCNC(=O)COc2cccc3c2C(=O)N(C2CCC(=O)NC2=O)C3=O)c1` (stereo partly drawn) [c1FKBP-3], the “Max Degradation (dual luciferase, %) FKBP 36V” value in assay [1] is 12%. Besides, the IC50 on GST-FKBP12 (36V) stood at 1200 nM. The IC50 on GST-FKBP12 (WT) came to 1830 nM. In addition, in [2], the DC50 came out at 19700 nM and the “Max Degradation (dual luciferase, %) FKBP” value was found to be 22%.
With `CCC(C)(C)C(=O)C(=O)N1CCCC[C@H]1C(=O)O[C@H](CCc1ccc(OC)c(OC)c1)c1cccc(OCC(=O)NCCCCNC(=O)COc2cccc3c2C(=O)N(C2CCC(=O)NC2=O)C3=O)c1` (stereo partly drawn) [c1FKBP-4], the “Max Degradation (dual luciferase, %) FKBP 36V” value in assay [1] was 21%. The IC50 at GST-FKBP12 (36V) was found to be 369 nM; on GST-FKBP12 (WT), 408 nM. For the same compound, the “Max Degradation (dual luciferase, %) FKBP” value in assay [2] turned out to be 34%.
In the case of `COc1ccc(CC[C@@H](OC(=O)[C@@H]2CCCCN2C(=O)Cc2ccccc2)c2cccc(OCC(=O)NCCCCNC(=O)COc3cccc4c3C(=O)N(C3CCC(=O)NC3=O)C4=O)c2)cc1OC` (stereo partly drawn) [c1FKBP-5], in assay [1], the “Max Degradation (dual luciferase, %) FKBP 36V” value is listed as less than 5%. The IC50 on GST-FKBP12 (36V) amounted to 2290 nM. Besides, on GST-FKBP12 (WT), the IC50 is more than 50000 nM. For the same compound, in [2], the DC50 was 2970 nM and the “Max Degradation (dual luciferase, %) FKBP” value worked out at 11%.
For `Cc1sc2c(c1C)C(c1ccc(Cl)cc1)=N[C@@H](CC(=O)NCCCCCCCCNC(=O)COc1cccc3c1C(=O)N(C1CCC(=O)NC1=O)C3=O)c1nnc(C)n1-2` (stereo partly drawn) [dBET6], the “IC50 (nM) NGP” value in the assay with NGP was 187/6.
With `CC[C@@H]1C(=O)N(C)c2cnc(Nc3ccc(C(=O)NCCCOCCOCCOCCCNC(=O)COc4cccc5c4C(=O)N(C4CCC(=O)NC4=O)C5=O)cc3OC)nc2N1C1CCCC1` (stereo partly drawn) [dBET10], the DC50 at BRD4 [3] worked out at 58 nM. Besides, in assay [4], the “Conc@Emax” value was determined as 50 µM. Besides, on CRBN-DDB1/BRD4, the “Dimer Amplitude” value was determined as 12824, the “Dimer Mean” value is −7.349 and the “Dimer SD” value was 0.5165.
For the compound `COc1cc(C(=O)NCCCOCCOCCOCCCNC(=O)COc2cccc3c2C(=O)N(C2CCC(=O)NC2=O)C3=O)ccc1Nc1ncc2c(n1)N(C)c1ccccc1C(=O)N2C` (stereo not drawn) [dBET12], at CRBN-DDB1/BRD4, the “Dimer Amplitude” value is on record as 173.7, the “Dimer Mean” value is reported as −6.366 and the “Dimer SD” value is on record as 3.287. This compound showed an IC50 against BRD4 [5] of 2080 nM.
As to `Cc1sc2c(c1C)C(c1ccc(Cl)cc1)=N[C@@H](CC(=O)NCCCN1CCN(C(=O)CCCCCNC(=O)COc3cccc4c3C(=O)N(C3CCC(=O)NC3=O)C4=O)CC1)c1nnc(C)n1-2` (stereo partly drawn) [dBET18], on BRD4 [3], the DC50 worked out at 196 nM. Besides, in [4], the DC50 is 243 nM, the “Conc@Emax” value was found to be 1.581 µM and the “pDC50 (dual luc)” value amounted to 6.614. Besides, at CRBN-DDB1/BRD4, the “Dimer Amplitude” value is recorded as 13116, the “Dimer Mean” value was −8.173 and the “Dimer SD” value came to 0.618.
Turning to `Cc1c(CC#N)sc2c1C(c1ccc(Cl)cc1)=N[C@@H](CC(=O)NCCCCNC(=O)COc1cccc3c1C(=O)N(C1CCC(=O)NC1=O)C3=O)c1nnc(C)n1-2` (stereo partly drawn) [dBET19], the “Conc@Emax” value in assay [4] is 15.81 µM. Besides, on CRBN-DDB1/BRD4, the “Dimer Amplitude” value is 1722, the “Dimer Mean” value is listed as −7.069 and the “Dimer SD” value is reported as 1.225.
On to `Cc1cnc(Nc2ccc(N3CCN(C(=O)CCCNC(=O)COc4cccc5c4C(=O)N(C4CCC(=O)NC4=O)C5=O)CC3)cc2)nc1Nc1cccc(S(=O)(=O)NC(C)(C)C)c1` (stereo not drawn) [dBET20], for which, in [4], the “pDC50 (dual luc)” value came to 6.686. On BRD4 [5], this compound yielded an IC50 of 5700 nM.
Regarding `Cc1sc2c(c1C)C(c1ccc(Cl)cc1)=N[C@@H](CC(=O)NCCOCCOCCNC(=O)COc1cccc3c1C(=O)N(C1CCC(=O)NC1=O)C3=O)c1nnc(C)n1-2` (stereo partly drawn) [dBET24], the “Conc@Emax” value in assay [4] was found to be 5 µM. For the same compound, at CRBN-DDB1/BRD4, the “Dimer Amplitude” value is listed as 31348, the “Dimer Mean” value is on record as −7.489 and the “Dimer SD” value was determined as 0.6531.
As for `Cc1sc2c(c1C)C(c1ccc(Cl)cc1)=N[C@@H](CC(=O)NCCOCCOc1cccc3c1C(=O)N(C1CCC(=O)NC1=O)C3=O)c1nnc(C)n1-2` (stereo partly drawn) [dBET27], in assay [4], the “Conc@Emax” value came to 0.5 µM. Further, on CRBN-DDB1/BRD4, the “Dimer Amplitude” value is 11278, the “Dimer Mean” value is −7.202 and the “Dimer SD” value was determined as 0.7693.
Regarding `Cc1sc2c(c1C)C(c1ccc(Cl)cc1)=N[C@@H](CC(=O)NCCCCOc1cccc3c1C(=O)N(C1CCC(=O)NC1=O)C3=O)c1nnc(C)n1-2` (stereo partly drawn) [dBET28], the “Conc@Emax” value in assay [4] was 0.001581 µM. Also, on CRBN-DDB1/BRD4, the “Dimer Amplitude” value is 1752, the “Dimer Mean” value is −7.037 and the “Dimer SD” value is 1.263.
In the same order, the values of `Cc1sc2c(c1C)C(c1ccc(Cl)cc1)=N[C@@H](CC(=O)NCCCCCCOc1cccc3c1C(=O)N(C1CCC(=O)NC1=O)C3=O)c1nnc(C)n1-2` (stereo partly drawn) [dBET29] are 0.05 µM, 1454, −7.756 and 0.7393.
Regarding `Cc1c(C(=O)NCCCCNC(=O)COc2cccc3c2C(=O)N(C2CCC(=O)NC2=O)C3=O)sc2c1C(c1ccc(Cl)cc1)=N[C@@H](CC(=O)NCCCN1CCN(C)CC1)c1nnc(C)n1-2` (stereo partly drawn) [dBET30], in [4], the DC50 stood at 2100 nM, the “Conc@Emax” value worked out at 50 µM and the “pDC50 (dual luc)” value is 5.679. In addition, at CRBN-DDB1/BRD4, the “Dimer Amplitude” value came out at 30326, the “Dimer Mean” value was −7.422 and the “Dimer SD” value was 0.8533.
For `Cc1c(C(=O)NCCCCCCCCNC(=O)COc2cccc3c2C(=O)N(C2CCC(=O)NC2=O)C3=O)sc2c1C(c1ccc(Cl)cc1)=N[C@@H](CC(=O)NCCCN1CCN(C)CC1)c1nnc(C)n1-2` (stereo partly drawn) [dBET31], in assay [4], the “Conc@Emax” value is 15.81 µM. In addition, on CRBN-DDB1/BRD4, the “Dimer Amplitude” value is reported as 32323, the “Dimer Mean” value was −7.374 and the “Dimer SD” value is reported as 0.6046.
For `CCC(C)(C)C(=O)C(=O)N1CCCC[C@H]1C(=O)O[C@H](CCc1ccc(OC)c(OC)c1)c1cccc(NC(=O)CCC(=O)NCCCCNC(=O)COc2cccc3c2C(=O)N(C2CCC(=O)NC2=O)C3=O)c1` (stereo partly drawn) [dFKBP-1], the DC50 was 153 nM in assay [1] (FKBP 36V) and 11 nM in [2]. Also, at GST-FKBP12 (36V), the 50% inhibitory concentration (IC50) stood at 237 nM.
With `O=C1CCC(N2C(=O)c3ccccc3C2=O)C(=O)N1` (stereo not drawn) [thalidomide], the “BRD4 degradation by compound alone (immunoblot)” value at BRD4 [6] is recorded as “insufficient to induce BRD4 degradation”.
